Experiment [1] addresses T1, Muscarinic acetylcholine receptor M4 (Homo sapiens, UniProt P08173).
T1 sequence (P08173 whole entry): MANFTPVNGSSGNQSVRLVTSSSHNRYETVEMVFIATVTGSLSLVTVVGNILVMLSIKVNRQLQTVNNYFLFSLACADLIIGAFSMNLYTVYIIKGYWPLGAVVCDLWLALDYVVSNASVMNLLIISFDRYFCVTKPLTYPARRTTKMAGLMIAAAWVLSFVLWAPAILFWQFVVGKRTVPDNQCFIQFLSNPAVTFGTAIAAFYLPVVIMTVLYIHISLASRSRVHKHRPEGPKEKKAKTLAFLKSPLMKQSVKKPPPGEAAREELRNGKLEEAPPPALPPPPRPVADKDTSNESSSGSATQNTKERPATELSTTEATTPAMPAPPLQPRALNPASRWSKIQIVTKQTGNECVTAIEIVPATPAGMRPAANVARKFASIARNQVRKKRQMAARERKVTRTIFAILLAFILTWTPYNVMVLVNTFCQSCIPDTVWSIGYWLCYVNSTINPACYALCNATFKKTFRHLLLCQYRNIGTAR

A further experiment deals with D(1B) dopamine receptor (Homo sapiens, UniProt P21918).
Sequence of D(1B) dopamine receptor (P21918 whole entry): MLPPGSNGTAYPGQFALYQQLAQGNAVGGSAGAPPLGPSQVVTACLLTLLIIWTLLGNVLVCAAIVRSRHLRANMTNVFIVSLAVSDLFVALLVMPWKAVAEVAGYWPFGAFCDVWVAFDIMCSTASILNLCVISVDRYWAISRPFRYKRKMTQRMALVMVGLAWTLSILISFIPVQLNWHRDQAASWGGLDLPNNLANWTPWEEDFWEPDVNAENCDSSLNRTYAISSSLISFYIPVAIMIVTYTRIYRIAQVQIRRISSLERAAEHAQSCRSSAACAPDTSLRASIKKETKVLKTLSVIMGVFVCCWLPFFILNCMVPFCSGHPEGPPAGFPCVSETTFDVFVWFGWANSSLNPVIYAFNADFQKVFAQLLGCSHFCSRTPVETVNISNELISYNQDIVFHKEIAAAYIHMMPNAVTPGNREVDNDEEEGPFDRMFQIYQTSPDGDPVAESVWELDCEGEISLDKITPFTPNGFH
In experiment [2] the target is T2, Oxysterols receptor LXR-beta (Homo sapiens, UniProt P55055).
T2 sequence (P55055 whole entry): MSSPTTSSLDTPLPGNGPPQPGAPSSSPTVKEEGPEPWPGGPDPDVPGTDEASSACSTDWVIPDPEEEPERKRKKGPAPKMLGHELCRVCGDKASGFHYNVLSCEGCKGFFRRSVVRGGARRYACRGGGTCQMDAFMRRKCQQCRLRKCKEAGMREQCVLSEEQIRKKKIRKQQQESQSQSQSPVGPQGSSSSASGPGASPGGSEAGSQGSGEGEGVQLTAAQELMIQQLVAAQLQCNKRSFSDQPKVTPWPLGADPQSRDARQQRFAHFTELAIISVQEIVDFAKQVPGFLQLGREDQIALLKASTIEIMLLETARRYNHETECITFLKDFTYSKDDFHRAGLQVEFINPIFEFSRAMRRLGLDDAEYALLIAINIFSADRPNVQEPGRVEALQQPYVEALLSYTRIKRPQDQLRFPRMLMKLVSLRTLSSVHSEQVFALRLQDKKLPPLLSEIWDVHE
Format: functional.

The target in experiment [3] is T3, Oxysterols receptor LXR-alpha (Homo sapiens, UniProt Q13133).
T3 sequence (Q13133 whole entry): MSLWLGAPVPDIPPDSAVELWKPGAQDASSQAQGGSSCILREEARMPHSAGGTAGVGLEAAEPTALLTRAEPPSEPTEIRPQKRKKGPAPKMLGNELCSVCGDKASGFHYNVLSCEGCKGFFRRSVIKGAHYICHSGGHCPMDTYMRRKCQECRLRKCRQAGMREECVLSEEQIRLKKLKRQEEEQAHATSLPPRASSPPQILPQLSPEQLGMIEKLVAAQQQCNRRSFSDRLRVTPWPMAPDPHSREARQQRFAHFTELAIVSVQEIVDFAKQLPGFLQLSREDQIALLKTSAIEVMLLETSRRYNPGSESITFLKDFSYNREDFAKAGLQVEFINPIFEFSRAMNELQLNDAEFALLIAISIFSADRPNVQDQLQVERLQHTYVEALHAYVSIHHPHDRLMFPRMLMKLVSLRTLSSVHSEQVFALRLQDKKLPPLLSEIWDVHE
Format: functional.

In experiment [4] the target is T3, Oxysterols receptor LXR-alpha. It is filed as functional. This is another data set of the same source.
In experiment [5] the target is T4, Bile acid receptor (Homo sapiens, UniProt Q96RI1).
T4 sequence (Q96RI1 whole entry): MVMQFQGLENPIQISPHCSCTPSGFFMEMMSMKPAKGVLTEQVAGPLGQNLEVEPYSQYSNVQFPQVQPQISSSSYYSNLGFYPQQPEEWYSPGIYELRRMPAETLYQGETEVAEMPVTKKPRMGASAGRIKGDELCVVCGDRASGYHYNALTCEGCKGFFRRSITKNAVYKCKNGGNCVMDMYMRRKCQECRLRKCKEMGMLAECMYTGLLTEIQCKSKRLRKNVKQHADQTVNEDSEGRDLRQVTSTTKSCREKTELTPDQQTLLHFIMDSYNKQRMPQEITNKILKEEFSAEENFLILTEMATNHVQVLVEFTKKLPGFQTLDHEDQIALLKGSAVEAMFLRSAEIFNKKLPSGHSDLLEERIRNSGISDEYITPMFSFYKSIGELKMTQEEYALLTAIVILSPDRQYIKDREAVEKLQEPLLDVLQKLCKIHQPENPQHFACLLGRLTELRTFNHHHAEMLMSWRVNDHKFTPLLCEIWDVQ
It is filed as functional.

In experiment [6] the target is T4, Bile acid receptor. Format: functional. The source holds these as a separate data set.
Experiment [7] has as its target T4, Bile acid receptor. It is filed as functional. This is another data set of the same source.
The target in experiment [8] is T5, Retinoic acid receptor alpha (Homo sapiens, UniProt P10276).
T5 sequence (P10276 whole entry): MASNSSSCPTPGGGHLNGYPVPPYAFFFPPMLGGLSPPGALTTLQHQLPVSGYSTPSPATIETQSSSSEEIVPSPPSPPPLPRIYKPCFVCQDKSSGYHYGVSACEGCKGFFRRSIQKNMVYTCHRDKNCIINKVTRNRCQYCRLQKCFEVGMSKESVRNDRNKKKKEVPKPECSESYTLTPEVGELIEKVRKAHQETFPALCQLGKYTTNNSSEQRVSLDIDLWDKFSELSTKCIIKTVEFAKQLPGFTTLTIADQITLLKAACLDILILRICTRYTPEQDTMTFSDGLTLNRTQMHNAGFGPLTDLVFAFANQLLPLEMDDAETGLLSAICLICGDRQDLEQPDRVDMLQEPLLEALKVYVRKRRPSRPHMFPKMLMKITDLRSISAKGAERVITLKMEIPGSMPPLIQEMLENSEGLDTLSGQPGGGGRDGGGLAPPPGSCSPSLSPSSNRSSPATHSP
Format: functional, cell-based.
Also: assay procedure not described here.

With `CCOC(=O)[C@H](CCc1ccccc1)N[C@@H](C)C(=O)N1Cc2ccccc2C[C@H]1C(=O)O`, the AC50 (in experiment [1]; at D(1B) dopamine receptor) was > 10 µM each time.
In the case of `CC(C)/N=c1\cc2n(-c3ccc(Cl)cc3)c3ccccc3nc-2cc1Nc1ccc(Cl)cc1` [CLOFAZIMINE], the half-maximal activity concentration (AC50) in [2] is > 30 µM; in experiment [3], > 30 µM; in [4], > 30 µM; at Bile acid receptor [5] it was > 30 µM; at Bile acid receptor [6], > 30 µM; at Bile acid receptor [7] it was 16 µM. Further, in experiment [8], the AC50 is > 30 µM.

These data come from ChEMBL document CHEMBL5291721, “A preclinical secondary pharmacology resource illuminates target-adverse drug reaction associations of marketed drugs” (Nat Commun, 2023).
